Laboratory results reported in US20250228821A1 (priority 2022, published 2025).

Tests used:
[1] = single dose 32 mg ruboxistaurin, healthy subjects (FIG. 5); cited from earlier work
[2] = human, microsomes, 1 μM
protein kinase C = conditions: cited from earlier work
[3] = in vivo; cited from earlier work
[4] = Blood/brain barrier penetration, pharmacokinetic study in rats; conditions: rat, 1 mg/kg intravenously
Source text: Blood samples were collected from 3 animals at 0.25, 1-, and 4-hours post-dose. Brain samples were collected from 9 other rats, 3 each at 0.25, 1-, and 4-hours post-dose. Brain samples were weighted and homogenized with phosphate buffered saline.

[5] = system: rats treated with dextroamphetamine; test: Ultrasonic vocalizations in rats induced by dextroamphetamine; assay type: in vivo, male Wistar rats; conditions: rats, 10, 30, 100 mg/kg IP 60 minutes before D-amphetamine 2.5 mg/kg IP (FIG. 9)
Procedure: 98 male Wistar rats were acclimated to the testing facility and handled daily (10 min/day) for 7 days prior to initiating the experiment. […] Rats were placed in white Plexiglas boxes (50×50×50 cm) and videotaped for 10 minutes to acclimate them to the test apparatus. Ultrasonic vocalizations (USV) were recorded with a microphone mounted 45 cm above the open field box to establish baseline, non-treatment related USV responses (50-kHz calls) in each rat. The next day, rats were injected with saline (1 mL/kg body weight, IP) and immediately placed into open field-testing boxes. USVs were recorded for 10 min.

| Molecule | half-life (t½) [1] | increase of compound levels at 15 minutes by CYP3A4 inhibitor troleandomycin [2] | potency of protein kinase C inhibition, ruboxistaurin vs. N-desmethyl ruboxistaurin (protein kinase C) | elimination half-life [3] | Mean brain ([4]; 0.25 hr) | Mean plasma ([4]; 0.25 hr) | Mean brain ([4]; 1 hr) | Mean plasma ([4]; 1 hr) | Mean brain ([4]; 4 hr) | Mean plasma ([4]; 4 hr) | effect on ultrasonic appetitive vocalizations (50-kHz calls) [5] |
| --- | --- | --- | --- | --- | --- | --- | --- | --- | --- | --- | --- |
| CN(C)C[C@@H]1CCn2cc(c3ccccc32)C2=C(C(=O)NC2=O)c2cn(c3ccccc23)CCO1 [Ruboxistaurin] | 5.25 h | 23 fold | equipotent | – | – | – | – | – | – | – | – |
| [Li] [lithium] | – | – | – | about 18 hours | – | – | – | – | – | – | – |
| (12E,32E,7S)-7-((methylamino)methyl)-22,25-dihydro-11H,21H,31H-6-oxa-1,3(3,1)-diindola-2(3,4)-pyrrolacyclononaphane-22,25-dione hydrochloride [N-desmethyl ruboxistaurin] | 23.9 h | – | – | – | 21.0 ng/g | 73.3 ng/mL | 19.5 ng/g | 43.5 ng/mL | 13.3 ng/g | 11.8 ng/mL | able to reduce ultrasonic appetitive vocalizations |
